Tests used:
[1] = biological target: Dual specificity protein kinase CLK4 (Homo sapiens, UniProt Q9HAZ1); settings: at 10 µM
[2] = biological target: Insulin receptor-related protein (Homo sapiens) (UniProt P14616); settings: at 10 µM
[3] = biological target: Mitogen-activated protein kinase kinase kinase kinase 4 (Homo sapiens, UniProt O95819); test: Selectivity interaction (Kinase panel (literature)) EUB0001199aCl MAP4K4; settings: at 1 µM
[4] = biological target: Fibroblast growth factor receptor 4 (Homo sapiens, UniProt P22455); test: Selectivity interaction (Kinase panel (Z-LYTE Assay)) EUB0001632a FGFR4; settings: at 10 µM
Fibroblast growth factor receptor 4, sequence (P22455 22-802 limits assumed): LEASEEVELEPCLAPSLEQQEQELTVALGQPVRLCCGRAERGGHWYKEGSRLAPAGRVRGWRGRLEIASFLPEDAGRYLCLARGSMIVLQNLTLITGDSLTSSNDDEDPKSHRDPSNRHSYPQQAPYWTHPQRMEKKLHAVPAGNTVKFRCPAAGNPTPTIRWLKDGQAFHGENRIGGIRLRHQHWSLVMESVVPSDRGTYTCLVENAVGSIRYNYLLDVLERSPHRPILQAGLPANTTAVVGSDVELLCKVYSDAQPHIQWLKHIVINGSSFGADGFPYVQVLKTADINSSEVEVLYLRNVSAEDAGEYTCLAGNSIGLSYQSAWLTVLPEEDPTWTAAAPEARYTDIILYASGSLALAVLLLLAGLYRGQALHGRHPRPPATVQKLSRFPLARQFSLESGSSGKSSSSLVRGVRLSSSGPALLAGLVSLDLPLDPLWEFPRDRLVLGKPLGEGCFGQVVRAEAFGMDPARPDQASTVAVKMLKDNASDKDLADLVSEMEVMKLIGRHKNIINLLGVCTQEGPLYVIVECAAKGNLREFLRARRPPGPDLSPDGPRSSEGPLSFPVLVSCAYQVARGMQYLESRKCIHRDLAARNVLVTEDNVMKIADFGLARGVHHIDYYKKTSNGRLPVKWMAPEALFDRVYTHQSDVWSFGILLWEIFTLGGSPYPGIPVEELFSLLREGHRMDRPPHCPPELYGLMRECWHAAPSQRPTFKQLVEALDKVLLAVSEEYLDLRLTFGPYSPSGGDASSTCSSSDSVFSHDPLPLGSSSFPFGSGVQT

[5] = biological target: T1, Histone-lysine N-methyltransferase EHMT1 (Homo sapiens) (UniProt Q9H9B1); test: Selectivity interaction (Methyltransferase screen (radiometric assays, panel of 8 PRMTs, 21 protein lysine methyltransferases, 3 DNA methyltransferases, and one RNA methyltransferase)) EUB0000272b EHMT1
T1 sequence (whole entry): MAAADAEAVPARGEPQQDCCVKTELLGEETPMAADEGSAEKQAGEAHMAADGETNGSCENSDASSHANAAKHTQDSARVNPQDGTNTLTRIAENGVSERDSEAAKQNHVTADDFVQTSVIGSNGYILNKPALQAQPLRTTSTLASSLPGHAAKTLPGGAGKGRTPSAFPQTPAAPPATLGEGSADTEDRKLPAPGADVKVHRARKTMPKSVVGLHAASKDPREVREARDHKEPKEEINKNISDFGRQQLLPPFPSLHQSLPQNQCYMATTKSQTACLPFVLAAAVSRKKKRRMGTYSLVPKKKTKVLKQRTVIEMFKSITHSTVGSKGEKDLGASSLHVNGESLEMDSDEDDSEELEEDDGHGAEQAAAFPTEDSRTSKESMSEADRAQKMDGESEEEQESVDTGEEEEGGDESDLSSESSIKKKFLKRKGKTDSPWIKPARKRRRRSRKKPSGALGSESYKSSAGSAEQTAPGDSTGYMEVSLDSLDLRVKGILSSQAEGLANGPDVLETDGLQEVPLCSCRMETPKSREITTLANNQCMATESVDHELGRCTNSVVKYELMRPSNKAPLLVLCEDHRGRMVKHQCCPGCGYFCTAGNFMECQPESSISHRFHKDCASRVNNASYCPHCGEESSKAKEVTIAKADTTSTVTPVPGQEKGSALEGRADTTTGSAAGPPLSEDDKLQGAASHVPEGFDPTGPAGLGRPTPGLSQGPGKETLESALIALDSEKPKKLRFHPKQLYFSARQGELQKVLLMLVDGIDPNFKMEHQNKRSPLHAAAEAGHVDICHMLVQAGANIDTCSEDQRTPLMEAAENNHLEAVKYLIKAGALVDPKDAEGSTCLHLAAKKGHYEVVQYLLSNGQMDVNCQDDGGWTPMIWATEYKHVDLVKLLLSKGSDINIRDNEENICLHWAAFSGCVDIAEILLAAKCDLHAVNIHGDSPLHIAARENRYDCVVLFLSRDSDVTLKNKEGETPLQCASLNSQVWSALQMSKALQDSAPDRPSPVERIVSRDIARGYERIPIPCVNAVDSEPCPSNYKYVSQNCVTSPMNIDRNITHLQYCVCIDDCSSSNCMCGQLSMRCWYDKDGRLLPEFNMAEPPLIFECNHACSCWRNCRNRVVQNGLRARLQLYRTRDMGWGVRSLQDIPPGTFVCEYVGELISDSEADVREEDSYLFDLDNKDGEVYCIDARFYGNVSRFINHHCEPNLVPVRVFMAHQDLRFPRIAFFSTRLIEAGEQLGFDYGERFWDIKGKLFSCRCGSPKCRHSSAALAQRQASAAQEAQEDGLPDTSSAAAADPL

[6] = biological target: Cyclin-dependent kinase-like 3 (Homo sapiens) (UniProt Q8IVW4); test: Selectivity interaction (KinomeScan (DiscoverX)) EUB0000595a CDKL3; settings: at 10 µM
[7] = biological target: Cyclin-dependent kinase 17 (Homo sapiens) (UniProt Q00537); settings: at 10 µM
Cyclin-dependent kinase 17 (Homo sapiens), sequence (Q00537 whole entry, looked up): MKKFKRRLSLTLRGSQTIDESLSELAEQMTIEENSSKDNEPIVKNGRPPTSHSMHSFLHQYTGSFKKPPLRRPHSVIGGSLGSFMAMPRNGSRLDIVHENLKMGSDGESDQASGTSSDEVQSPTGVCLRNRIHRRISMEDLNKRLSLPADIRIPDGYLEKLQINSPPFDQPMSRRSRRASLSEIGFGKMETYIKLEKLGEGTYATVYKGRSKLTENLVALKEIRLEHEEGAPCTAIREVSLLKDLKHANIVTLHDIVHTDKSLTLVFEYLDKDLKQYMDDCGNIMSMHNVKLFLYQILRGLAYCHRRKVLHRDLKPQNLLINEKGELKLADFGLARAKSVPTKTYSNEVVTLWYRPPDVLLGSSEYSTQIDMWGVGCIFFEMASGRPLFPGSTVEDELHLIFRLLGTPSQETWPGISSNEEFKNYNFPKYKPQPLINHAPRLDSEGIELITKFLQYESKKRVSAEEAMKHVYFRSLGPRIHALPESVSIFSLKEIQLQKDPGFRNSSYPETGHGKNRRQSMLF

[8] = biological target: T2, Serine/threonine-protein kinase Nek10 (Homo sapiens) (UniProt Q6ZWH5); test: Selectivity interaction (KinomeScan (DiscoverX)) EUB0001079a NEK10; settings: at 1 µM
T2 sequence (whole entry): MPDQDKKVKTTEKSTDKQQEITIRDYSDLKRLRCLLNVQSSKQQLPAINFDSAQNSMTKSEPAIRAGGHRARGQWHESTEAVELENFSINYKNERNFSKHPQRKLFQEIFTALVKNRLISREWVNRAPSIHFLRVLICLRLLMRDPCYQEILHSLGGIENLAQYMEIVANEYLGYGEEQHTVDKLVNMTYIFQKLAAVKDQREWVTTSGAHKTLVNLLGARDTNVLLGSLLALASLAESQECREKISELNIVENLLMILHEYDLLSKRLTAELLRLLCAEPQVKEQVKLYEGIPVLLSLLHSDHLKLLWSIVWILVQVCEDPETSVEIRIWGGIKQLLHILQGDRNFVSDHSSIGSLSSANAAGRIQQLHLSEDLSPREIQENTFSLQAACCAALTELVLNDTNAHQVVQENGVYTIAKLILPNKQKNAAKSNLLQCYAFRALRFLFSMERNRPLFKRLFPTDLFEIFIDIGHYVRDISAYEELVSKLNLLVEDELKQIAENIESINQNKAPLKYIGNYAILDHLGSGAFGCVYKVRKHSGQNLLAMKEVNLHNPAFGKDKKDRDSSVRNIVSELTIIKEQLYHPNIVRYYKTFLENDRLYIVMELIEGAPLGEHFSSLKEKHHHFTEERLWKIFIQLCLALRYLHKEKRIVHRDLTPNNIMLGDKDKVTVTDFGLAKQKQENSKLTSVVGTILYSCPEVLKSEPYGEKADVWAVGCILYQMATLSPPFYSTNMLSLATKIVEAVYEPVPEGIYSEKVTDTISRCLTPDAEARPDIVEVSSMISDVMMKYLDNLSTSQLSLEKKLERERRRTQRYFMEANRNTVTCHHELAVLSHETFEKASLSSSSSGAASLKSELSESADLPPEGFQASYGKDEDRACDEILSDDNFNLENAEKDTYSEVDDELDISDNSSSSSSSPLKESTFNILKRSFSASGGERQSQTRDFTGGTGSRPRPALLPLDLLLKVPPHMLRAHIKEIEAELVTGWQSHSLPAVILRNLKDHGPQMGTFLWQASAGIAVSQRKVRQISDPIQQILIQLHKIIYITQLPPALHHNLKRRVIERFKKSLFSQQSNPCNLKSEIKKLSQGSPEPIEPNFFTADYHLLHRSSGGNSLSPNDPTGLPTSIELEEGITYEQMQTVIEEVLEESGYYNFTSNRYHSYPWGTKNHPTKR

[9] = biological target: Maternal embryonic leucine zipper kinase (Homo sapiens) (UniProt Q14680); test: Selectivity interaction (KinomeScan (DiscoverX)) EUB0000618a MELK; settings: at 10 µM
Maternal embryonic leucine zipper kinase (Homo sapiens), sequence (Q14680 whole entry, looked up): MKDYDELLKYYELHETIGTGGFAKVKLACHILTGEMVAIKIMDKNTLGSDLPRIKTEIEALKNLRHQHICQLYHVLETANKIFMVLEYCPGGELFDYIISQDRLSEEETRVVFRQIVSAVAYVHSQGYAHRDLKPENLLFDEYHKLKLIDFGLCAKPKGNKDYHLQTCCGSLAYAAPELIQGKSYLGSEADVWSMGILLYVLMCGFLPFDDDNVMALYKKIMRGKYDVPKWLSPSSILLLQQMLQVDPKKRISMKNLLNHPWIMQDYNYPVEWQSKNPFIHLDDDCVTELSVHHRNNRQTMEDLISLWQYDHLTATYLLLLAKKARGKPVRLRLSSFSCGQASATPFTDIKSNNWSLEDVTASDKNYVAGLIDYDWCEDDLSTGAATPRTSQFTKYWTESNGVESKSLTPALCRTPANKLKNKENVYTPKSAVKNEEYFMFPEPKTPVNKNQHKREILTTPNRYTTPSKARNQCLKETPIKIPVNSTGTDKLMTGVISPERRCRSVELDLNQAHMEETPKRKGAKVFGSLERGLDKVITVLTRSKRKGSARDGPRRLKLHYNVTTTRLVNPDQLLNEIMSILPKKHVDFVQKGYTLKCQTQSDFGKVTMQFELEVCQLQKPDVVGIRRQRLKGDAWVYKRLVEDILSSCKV

[10] = biological target: Tyrosine-protein kinase JAK1 (Homo sapiens, UniProt P23458); test: Selectivity interaction (NanoBRET assay (HEK293T cells)) EUB0001558a JAK1; type: cell-based, HEK-293T
Tyrosine-protein kinase JAK1, sequence (P23458 whole entry): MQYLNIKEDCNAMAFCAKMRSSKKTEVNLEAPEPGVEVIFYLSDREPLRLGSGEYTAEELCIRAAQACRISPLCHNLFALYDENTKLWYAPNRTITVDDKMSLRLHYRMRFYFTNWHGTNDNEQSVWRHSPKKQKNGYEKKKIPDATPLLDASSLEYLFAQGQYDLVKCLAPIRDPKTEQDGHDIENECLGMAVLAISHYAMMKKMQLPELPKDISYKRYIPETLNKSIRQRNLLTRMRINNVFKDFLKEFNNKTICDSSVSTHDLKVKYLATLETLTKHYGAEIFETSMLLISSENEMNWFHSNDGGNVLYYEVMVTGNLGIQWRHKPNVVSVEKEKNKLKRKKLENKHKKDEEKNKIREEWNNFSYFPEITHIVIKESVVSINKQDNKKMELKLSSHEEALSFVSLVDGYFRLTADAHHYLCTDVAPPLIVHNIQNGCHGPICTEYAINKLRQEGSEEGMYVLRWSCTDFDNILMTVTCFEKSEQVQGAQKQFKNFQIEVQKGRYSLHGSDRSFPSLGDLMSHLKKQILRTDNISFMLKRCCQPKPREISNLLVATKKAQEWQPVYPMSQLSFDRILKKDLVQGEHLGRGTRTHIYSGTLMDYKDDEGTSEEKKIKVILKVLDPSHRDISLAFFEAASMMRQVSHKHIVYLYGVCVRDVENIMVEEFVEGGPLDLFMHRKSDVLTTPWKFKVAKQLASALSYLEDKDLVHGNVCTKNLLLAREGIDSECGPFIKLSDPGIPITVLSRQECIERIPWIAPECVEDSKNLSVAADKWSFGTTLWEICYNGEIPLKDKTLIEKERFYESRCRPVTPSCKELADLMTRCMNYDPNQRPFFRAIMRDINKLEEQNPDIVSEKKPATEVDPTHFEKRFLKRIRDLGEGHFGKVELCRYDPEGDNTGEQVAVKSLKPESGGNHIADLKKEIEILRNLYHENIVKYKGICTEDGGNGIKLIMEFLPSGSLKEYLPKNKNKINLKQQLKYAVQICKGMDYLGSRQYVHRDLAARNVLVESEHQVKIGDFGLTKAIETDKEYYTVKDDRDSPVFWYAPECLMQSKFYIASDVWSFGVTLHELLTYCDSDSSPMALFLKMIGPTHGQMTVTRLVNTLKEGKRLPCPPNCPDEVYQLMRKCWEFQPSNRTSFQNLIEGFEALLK

Mitogen-activated protein kinase kinase kinase kinase 4, sequence (O95819 2-1239 limits assumed): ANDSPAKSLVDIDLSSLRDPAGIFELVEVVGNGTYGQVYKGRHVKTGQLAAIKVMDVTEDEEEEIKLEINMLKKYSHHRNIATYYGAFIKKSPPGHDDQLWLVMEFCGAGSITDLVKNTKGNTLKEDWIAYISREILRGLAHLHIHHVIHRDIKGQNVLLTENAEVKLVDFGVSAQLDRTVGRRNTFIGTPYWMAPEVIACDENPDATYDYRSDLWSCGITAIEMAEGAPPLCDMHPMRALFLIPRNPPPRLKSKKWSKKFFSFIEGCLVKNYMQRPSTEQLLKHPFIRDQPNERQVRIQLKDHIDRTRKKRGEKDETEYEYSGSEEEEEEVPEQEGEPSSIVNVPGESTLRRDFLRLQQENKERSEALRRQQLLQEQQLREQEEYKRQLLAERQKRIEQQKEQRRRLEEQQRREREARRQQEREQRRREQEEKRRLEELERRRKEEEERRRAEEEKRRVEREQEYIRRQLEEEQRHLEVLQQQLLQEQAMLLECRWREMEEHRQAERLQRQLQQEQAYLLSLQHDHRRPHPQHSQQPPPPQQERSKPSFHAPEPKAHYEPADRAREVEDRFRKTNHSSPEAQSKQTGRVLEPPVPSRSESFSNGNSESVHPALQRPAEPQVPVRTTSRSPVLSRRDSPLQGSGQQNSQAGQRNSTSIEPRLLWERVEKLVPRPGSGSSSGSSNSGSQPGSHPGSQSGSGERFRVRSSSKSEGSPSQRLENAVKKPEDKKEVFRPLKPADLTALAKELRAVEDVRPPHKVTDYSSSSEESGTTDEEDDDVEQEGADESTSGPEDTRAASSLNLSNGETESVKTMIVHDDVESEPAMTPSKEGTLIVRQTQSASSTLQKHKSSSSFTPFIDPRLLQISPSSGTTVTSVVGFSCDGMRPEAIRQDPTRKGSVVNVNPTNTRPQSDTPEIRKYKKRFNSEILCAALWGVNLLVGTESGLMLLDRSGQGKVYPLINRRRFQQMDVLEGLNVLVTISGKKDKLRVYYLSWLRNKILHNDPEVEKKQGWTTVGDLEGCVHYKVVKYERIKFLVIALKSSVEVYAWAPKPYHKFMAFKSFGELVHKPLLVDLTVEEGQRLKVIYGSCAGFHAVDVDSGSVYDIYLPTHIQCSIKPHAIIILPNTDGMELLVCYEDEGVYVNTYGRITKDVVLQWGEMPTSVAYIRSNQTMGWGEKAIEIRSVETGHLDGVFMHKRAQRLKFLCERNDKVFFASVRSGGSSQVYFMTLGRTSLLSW
Dual specificity protein kinase CLK4, sequence (Q9HAZ1 whole entry, looked up): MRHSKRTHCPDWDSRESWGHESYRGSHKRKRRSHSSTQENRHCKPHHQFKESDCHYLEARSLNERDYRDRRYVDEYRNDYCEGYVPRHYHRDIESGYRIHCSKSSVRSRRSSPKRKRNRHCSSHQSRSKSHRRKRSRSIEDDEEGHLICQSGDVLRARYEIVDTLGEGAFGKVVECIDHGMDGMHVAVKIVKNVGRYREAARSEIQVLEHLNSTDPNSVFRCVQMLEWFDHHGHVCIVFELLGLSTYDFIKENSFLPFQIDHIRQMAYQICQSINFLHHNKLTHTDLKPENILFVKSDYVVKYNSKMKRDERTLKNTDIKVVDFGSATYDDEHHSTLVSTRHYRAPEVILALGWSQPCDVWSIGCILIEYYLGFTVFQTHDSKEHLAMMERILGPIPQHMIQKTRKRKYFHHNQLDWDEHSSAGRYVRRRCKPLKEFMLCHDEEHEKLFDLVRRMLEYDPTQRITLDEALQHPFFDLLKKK

**Q.** `Cc1cc([C@@H](C)Nc2ccccc2C(=O)O)c2nc(N3CCOCC3)cc(=O)n2c1` [AZD-6482] was tested. Which % of control [1] did it give?
**A.** Its % of control is 68%.

**Q.** And the % of control [2]?
**A.** The % of control was 100%.

**Q.** Which % of inhibition [3] does the source give for `CN1Cc2nccc(-c3cn(C)nc3-c3ccc(F)cc3)c2C1=O` here?
**A.** The % of inhibition was 65%.

**Q.** `Cn1cc(-n2cnc3c(NCc4nc5cc(Cl)c(Cl)cc5[nH]4)nc(N4CCOCC4)nc32)cn1` was tested. Which % of control [4] did it give?
**A.** Its % of control is 3.57%.

**Q.** For `Cc1cc(C)cc([C@H]2c3cc(C)ccc3NC(=O)CN2C(=O)c2ccc(Br)s2)c1`, which % of activity ([5]; at 1 µM) is on record?
**A.** The % of activity was 98%.

**Q.** And the % of activity ([5]; at 10 µM)?
**A.** Its % of activity is 101%.

**Q.** Which % of control [6] does the source give for `COCC(=O)NC/C=C/c1ccc2ncnc(Nc3ccc(Oc4ccc(C)nc4)c(C)c3)c2c1` [CP-724714] here?
**A.** Its % of control is 100%.

**Q.** And the % of control [7]?
**A.** The % of control was 100%.

**Q.** `Nc1cnc(N2CCc3cc(S(=O)(=O)Nc4c(F)cc(Cl)cc4F)cc(N4CCCC4=O)c32)nc1` [TP-020n] was tested. Which % of control [8] did it give?
**A.** Its % of control is 100%.

**Q.** How did the % of control [9] turn out when `O[C@H]1CC[C@H](Nc2ncc3nc(Nc4c(F)cc(F)cc4F)n([C@H]4CCOC4)c3n2)CC1` was run?
**A.** The % of control was 92%.

**Q.** `CC(C)(O)[C@H](F)CN1Cc2cc(NC(=O)c3cnn4cccnc34)c(N3CCOCC3)cc2C1=O` was tested. Which EC50 [10] did it give?
**A.** Its EC50 is > 50 µM.

Source: ChEMBL document CHEMBL5465560, “Selectivity Literature for EUbOPEN Chemogenomic Library” (2024)
